{
  "source": "patent US20120058133A1",
  "about": "“INHIBITION OF TRNA SYNTHETASES AND THERAPEUTIC APPLICATIONS THEREOF” (President and Fellows of Harvard College, priority 2009, published 2012)",
  "key": {"[1]": {"system": "amino acid starvation response pathway", "test": "Amino acid starvation response (eIF2α phosphorylation, ATF4, AAR genes) in T cells", "type": "cell-based, mouse", "conditions": "for eIF2α phosphorylation and ATF4 expression: 1 μg/ml tunicamycin", "description": "FIG. 4C is a graph depicting results of quantitative real-time PCR performed on cDNA generated from unstimulated naïve T cells or those activated for 4 hours in the presence of 10 nM MAZ1310 or 10 nM HF. Asns, Gpt2 or eIF4Ebp1 mRNA expression was normalized to Hprt levels and data are presented as mean values ±SD in duplicate samples.\nFIG. 4D depicts western blot analysis of purified CD4^+ CD25^− T cells either unstimulated, or TCR-activated without exogenous cytokines in the presence of DMSO, 40 nM MAZ1310 or titrating concentrations of HF (1.25-40 nM). Whole cell lysates were prepared 4 hours-post TCR activation and immunoblotting was performed with the indicated antibodies. ATF4 protein is indicated by arrowhead. NS—non-specific band.\nFIG. 4E depicts western blot analysis of purified CD4^+ CD25^− T cells activated through the TCR for the indicated times without exogenous cytokines in the presence of either 10 nM MAZ1310 or 10 nM HF as indicated. Whole cell lysates were prepared during the timecourse and immunoblotting was performed.\nFIG. 4F depicts western blot analysis of CD4^+ CD25^− T cells either left unstimulated or were TCR-activated in the absence or presence of the indicated polarizing cytokine conditions and 10 nM MAZ1310 or 10 nM HF as indicated. Whole cell lysates were generated 4 hours after activation and immunoblotting was performed. Microarray data were generated from three independent experiments and all other data are representative of at least two similar experiments.\nFIG. 5. […] FIG. 5A depicts western blot and Xbp1 splicing analysis of CD4^+ CD25^− T cells left unstimulated, or activated through the TCR for 4 hours in complete medium (complete—200 μM Cys/100 μM Met), medium lacking Cys/Met (−Cys/Met) or complete medium containing 1 μg/ml tunicamycin, 10 nM HF or 10 nM MAZ1310. Western blotting was performed on whole cell extracts with the indicated antibodies. Xbp-1 splicing assay was performed on cDNA synthesized from T cell cultures.\nT cells were activated as described above, collected at the indicated times and pellets were flash-frozen in liquid nitrogen. Total RNA was obtained by RNeasy (Quiagen—Valencia, Calif.) column purification per manufacturers instructions. RORγt expression was determined after reverse transcription using the message sensor kit (Ambion—Austin, Tex.) per the manufacturer's instructions and taqman primers and probe as described elsewhere (Ivanov et al., Cell 126:1121, 2006). Sybrgreen quantitative real-time PCR was performed on T cell RNA samples following reverse transcription via SuperScript II first-strand cDNA synthesis kit (Invitrogen—Carlsbad, Calif.). All PCR data was collected on an iCycler thermal cycler (Biorad—Hercules, Calif.). Primer sequences used for detecting stress response genes are listed below.\nWhole cell lysates were generated from T cells activated for the indicated times. For STAT3 and Smad2/3 western blots cells were harvested, washed in PBS and lysed in 50 mM Tris, pH 7.4, 0.1% SDS, 1% Triton-X 100, 140 mM NaCl, 1 mM EDTA, 1 mM EGTA supplemented with protease inhibitors tablets (Roche—Germany), 1 mM NaF and 1 mM Na3VO4. For eIF2α and ATF4 western blots, cells were harvested as above and lysed in 50 mM Tris, pH 7.4, 2% SDS, 20% glycerol and 2 mM EDTA supplemented with protease and phosphatase inhibitors as above. All lysates were cleared via centrifugation and 15-30 μg of protein was resolved by SDS-PAGE. Protein was transferred to nitrocellulose membranes, blocked and blotted using specific antibodies. Antibodies used for western blot analysis were anti-phospho-Smad2, anti-STAT3 (pY705), anti-STAT3, anti-eIF2α^ps51, anti-eIF2α (all from cell signaling technology—Danvers, Mass.). Anti-ATF4/CREB2 and anti-β-actin were purchased from Santa Cruz Biotechnology (Santa Cruz, Calif.). HRP-conjugated secondary antibodies were all purchased from Sigma, with the exception of HRP-conjugated anti-armenian hamster antibody (Jackson Immunoresearch—West Grove, Pa.). […]"}, "[2]": {"system": "murine CD4+ CD25− T cells, CD8+ T cells, B cells", "conditions": "high concentrations; PCT/US08/09774; cited from earlier work"}, "[3]": {"system": "translation in rabbit reticulocyte lysate", "test": "In vitro translation in rabbit reticulocyte lysate (RRL)", "type": "biochemical", "conditions": "for rescue of translation inhibition by added amino acids: excess amino acids (1-2 mM)", "description": "FIG. 23. HF and FF inhibit prolyl tRNA synthetase activity in vitro. […] Rabbit reticulocyte lysate (RRL) was incubated with luciferase mRNA and translation quantitated in a luminescence assay. A high concentration of mixed or individual amino acids (1 mM of each) was added to rescue translational inhibition. AA Mix 1: Asn, Arg, Val, Glu, Gly; AA Mix2: Lys, Ile, Tyr, Asp, Trp; Mix 3: His, Met, Leu, Ala, Thr; Mix 4: Ser, Phe, Pro, Gln. […] Note log scale of y axis.\nInhibitors (FIG. 22) and proline were assayed as described in FIG. 23A. Note log scale at Y axis. Error bars reflect standard deviation of triplicate determinations.\nShort myc-tagged polypeptides of identical sequence (see Example 9, “Materials and Methods”) with the exception that NoPro lacks proline, while ProPro contains a proline dipeptide, were translated in RRL in the presence of indicated inhibitors. Translation was examined by anti-myc Western blot.\nNote log scale of Y axis.\nTranslation in vitro was performed using rabbit reticulocyte lysates and luciferase mRNA as template. Translation was measured as arbitrary units of luciferase activity using a luminometer based luminescence assay. Log scale presentation of background-subtracted data is shown."}, "[4]": {"conditions": "TCR activation 4 hours, 10 nM HF"}},
  "data": [
    {"compound": "O=C(CC1NCCCC1O)Cn1cnc2cc(Br)c(Cl)cc2c1=O", "note": "(racemic) [HF, halofuginone]", "values": [
      {"measurement": "time to maximum eIF2α phosphorylation", "setting": "[1]; 10 nM HF", "value": "≤ 2", "unit": "h"},
      {"measurement": "time until which ATF4 protein continued to accumulate", "setting": "[1]; 10 nM HF", "value": 4, "unit": "h"},
      {"measurement": "ATF4 expression in differentiated and naïve T cells", "setting": "[1]; 10 nM HF, 4 hours", "value": "induced ATF4 expression in all differentiated T cells, but not in naïve T cells"},
      {"measurement": "eIF2α phosphorylation in resting naïve T cells and ThN, Th1, Th2, iTreg, Th17 conditions", "setting": "[1]; 10 nM HF, 4 hours", "value": "induced eIF2α phosphorylation"},
      {"measurement": "AAR-associated genes (Asns, Gpt2, eIF4Ebp1) by qPCR", "setting": "[1]; 10 nM HF, within 4 hours of T cell activation", "value": "induced"},
      {"measurement": "effect of added proline on HF-induced eIF2alpha phosphorylation", "setting": "[1]; 10 nM halofuginone, 1 mM amino acid", "value": "blocked by added proline"},
      {"measurement": "eif2alpha Ser51 phosphorylation in wild type and GCN2−/− T cells", "setting": "[1]; 10 nM, TCR activation 4 hours", "value": "leads to phosphorylation of Ser51 of eif2alpha only in wild type cells and not in GCN2^−/− cells"},
      {"measurement": "concentration at which eIF2α phosphorylation plateaued", "setting": "[1]; 4 hours post TCR activation", "value": "5 to 10", "unit": "nM"},
      {"measurement": "concentration giving detectable eIF2α phosphorylation", "setting": "[1]; 4 hours post TCR activation", "value": 2.5, "unit": "nM"},
      {"measurement": "concentration with highest ATF4 expression levels", "setting": "[1]; 4 hours post TCR activation", "value": "5 to 10", "unit": "nM"},
      {"measurement": "concentrations at which ATF4 expression was reduced", "setting": "[1]; 4 hours post TCR activation", "value": "20 to 40", "unit": "nM"},
      {"measurement": "eIF2α phosphorylation and ATF4 expression", "setting": "[1]; [4]", "value": "inducing eIF2α phosphorylation"},
      {"measurement": "concentrations generally inhibiting CD4+ T cell, CD8+ T cell, and B220+ B cell activation", "setting": "[2]", "value": "20 to 40", "unit": "nM"},
      {"measurement": "translation of NoPro polypeptide", "setting": "[3]", "value": "had no effect on the translation of NoPro"},
      {"measurement": "translation of ProPro polypeptide", "setting": "[3]", "value": "prevented translation of ProPro"},
      {"measurement": "rescue of translation inhibition by added purified EPRS", "setting": "[3]; 80 ng or 0.5 μg EPRS", "value": "rescued HF/FF-inhibition of protein translation"},
      {"measurement": "translation of luciferase mRNA", "setting": "[3]; 400 nM halofuginone", "value": "inhibition of translation"},
      {"measurement": "eIF2-alpha phosphorylation in RRL", "setting": "[3]; data not shown", "value": "no increase"},
      {"measurement": "rescue of translation inhibition by added amino acids", "setting": "[3]", "value": "only proline could restore translation"},
      {"measurement": "rescue of translation inhibition by added amino acids", "setting": "[3]; listed as halofuginone", "value": "rescues inhibition of translation by halofuginone"},
      {"measurement": "translation of luciferase RNA in RRL", "setting": "[3]; standard amino acid mix", "value": "inhibited the translation of luciferase RNA"}
    ]},
    {"compound": "tunicamycin", "values": [
      {"measurement": "eIF2α phosphorylation and ATF4 expression", "setting": "[1]; [4]", "value": "induced eIF2α phosphorylation and ATF4 expression"}
    ]}
  ]
}
